Experimental data from patent publication EP4667458A1 (Kanaph Therapeutics Inc., priority 2023, dated 2024).
Read-outs that look alike come from different tables or passages of the source.

How the values were obtained:
KRAS^G12C::SOS1 = molecular target: T1, KRAS^G12C::SOS1 (Homo sapiens, UniProt Q07889); test: KRAS G12C::SOS1 protein-protein interaction (PPI) inhibition assay (HTRF binding kit)
T1 sequence (Q07889 1-1333): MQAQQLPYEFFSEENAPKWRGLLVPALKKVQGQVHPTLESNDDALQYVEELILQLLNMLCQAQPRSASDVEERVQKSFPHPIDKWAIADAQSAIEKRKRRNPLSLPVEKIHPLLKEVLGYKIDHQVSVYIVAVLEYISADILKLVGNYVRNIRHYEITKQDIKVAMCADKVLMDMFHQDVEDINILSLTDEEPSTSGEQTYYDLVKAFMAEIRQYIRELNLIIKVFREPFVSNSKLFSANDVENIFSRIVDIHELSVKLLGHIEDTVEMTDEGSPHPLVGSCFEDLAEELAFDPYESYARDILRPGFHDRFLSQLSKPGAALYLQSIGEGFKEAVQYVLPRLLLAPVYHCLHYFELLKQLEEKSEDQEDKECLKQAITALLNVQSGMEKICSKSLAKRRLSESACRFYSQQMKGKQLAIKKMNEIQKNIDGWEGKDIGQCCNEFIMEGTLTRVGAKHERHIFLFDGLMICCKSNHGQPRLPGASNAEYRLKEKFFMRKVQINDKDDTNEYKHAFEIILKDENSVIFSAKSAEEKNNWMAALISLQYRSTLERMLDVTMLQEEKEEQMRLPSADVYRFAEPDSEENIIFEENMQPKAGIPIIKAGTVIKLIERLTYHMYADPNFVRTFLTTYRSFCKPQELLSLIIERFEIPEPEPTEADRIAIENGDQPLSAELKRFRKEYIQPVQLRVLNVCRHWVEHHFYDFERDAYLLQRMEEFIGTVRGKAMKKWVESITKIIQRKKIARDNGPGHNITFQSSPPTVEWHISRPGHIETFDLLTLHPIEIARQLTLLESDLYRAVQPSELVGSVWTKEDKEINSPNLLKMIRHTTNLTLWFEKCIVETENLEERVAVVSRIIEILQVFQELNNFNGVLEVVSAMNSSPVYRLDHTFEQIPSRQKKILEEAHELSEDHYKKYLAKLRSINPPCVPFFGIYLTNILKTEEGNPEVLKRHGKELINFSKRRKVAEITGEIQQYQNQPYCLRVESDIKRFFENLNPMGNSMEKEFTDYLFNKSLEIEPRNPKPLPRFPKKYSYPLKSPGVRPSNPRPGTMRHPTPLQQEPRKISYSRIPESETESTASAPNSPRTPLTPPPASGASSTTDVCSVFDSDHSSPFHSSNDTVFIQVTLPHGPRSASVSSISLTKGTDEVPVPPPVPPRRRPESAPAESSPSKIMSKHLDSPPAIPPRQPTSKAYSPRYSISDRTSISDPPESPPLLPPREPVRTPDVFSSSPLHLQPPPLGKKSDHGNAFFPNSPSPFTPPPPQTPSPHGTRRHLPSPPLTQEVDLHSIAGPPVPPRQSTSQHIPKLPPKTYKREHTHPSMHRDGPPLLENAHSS

SOS1 = molecular target: T2, SOS1 (Homo sapiens, UniProt Q07889); test: SOS-catalyzed nucleotide exchange assay (HTRF, SOS1-mediated GTP loading of KRAS G12D); assay type: biochemical; details: GST-KRAS G12D, HIS-SOS1cat, EDA-GTP-DY-647P1; compound 128 pM to 10 µM; read-out: SOS-catalyzed nucleotide exchange assay (IC50 range, Grade)
T2 construct: adding equal amounts of HIS-SOS1cat (160 nM; Cytoskeleton, US); His; purchased Cytoskeleton, US
T2 sequence (Q07889 564-1049 limits assumed): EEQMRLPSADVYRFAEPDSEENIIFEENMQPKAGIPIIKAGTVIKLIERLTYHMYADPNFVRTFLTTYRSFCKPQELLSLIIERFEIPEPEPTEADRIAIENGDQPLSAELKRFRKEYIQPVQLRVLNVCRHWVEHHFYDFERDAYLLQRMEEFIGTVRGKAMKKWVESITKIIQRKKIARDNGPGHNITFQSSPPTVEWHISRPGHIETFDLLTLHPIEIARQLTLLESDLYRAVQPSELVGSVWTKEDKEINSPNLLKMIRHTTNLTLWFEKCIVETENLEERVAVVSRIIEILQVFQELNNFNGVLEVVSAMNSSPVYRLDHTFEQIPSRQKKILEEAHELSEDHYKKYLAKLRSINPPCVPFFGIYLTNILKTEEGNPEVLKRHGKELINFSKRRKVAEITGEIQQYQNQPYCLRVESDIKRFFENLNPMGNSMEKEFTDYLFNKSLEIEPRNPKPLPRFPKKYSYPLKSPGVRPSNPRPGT
Method in brief: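 SOS1cat (HIS-tagged) preincubated 10 min at room temperature with compound (128 pM-10 µM), then GST-KRAS G12D with anti-GST terbium added; GTP loading tracked as HTRF with a DY-647P1 GTP analogue after 30 min, buffer HEPES pH 7.4. GEF-free wells for normalization; IC50 derived.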

Row | Molecule | IC50 (KRAS^G12C::SOS1; read-out: KRAS ^G12C::SOS1 PPI assay (IC50 range, Grade), maximum concentration 3 µM, 8 concentrations, three replicates) [nM] | IC50 (SOS1) [nM] | IC50 (KRAS^G12C::SOS1) [nM]
1 | N-[(1R)-1-[3-amino-5-(trifluoromethyl)phenyl]ethyl]-6-oxo-1-[4-(trifluoromethoxy)phenyl]pyridazine-3-carboxamide [Example 154] | < 1000 | 1000 to 10000 | 
2 | C[C@@H](NC(=O)c1ccc(=O)n(-c2cccc(C(=O)N(C)C)c2)n1)c1cc(N)cc(C(F)(F)F)c1 [Example 31, (R)-N-(1-(3-amino-5-(trifluoromethyl)phenyl)ethyl)-1-(3-(dimethylcarbamoyl)phenyl)-6-oxo-1,6-dihydropyridazine-3-carboxamide] |  | < 1000 | 
3 | C[C@@H](NC(=O)c1ccc(=O)n(-c2ccccc2)n1)c1cccc(C2CC2)c1 [Example 14, N-[(1R)-1-(3-cyclopropylphenyl)ethyl]-6-oxo-1-phenyl-pyridazine-3-carboxamide] |  | 1000 to 10000 | 
4 | C[C@@H](NC(=O)c1cc(O)c(=O)n(-c2ccccc2)n1)c1cc(N)cc(C(F)(F)F)c1 [Example 48, (R)-N-(1-(3-amino-5-(trifluoromethyl)phenyl)ethyl)-5-hydroxy-6-oxo-1-phenyl-1,6-dihydropyridazine-3-carboxamide] |  | 1000 to 10000 | 
5 | Cc1cccc([C@@H](C)NC(=O)c2ccc(=O)n(-c3ccccc3)n2)c1 [Example 3, (R)-6-oxo-1-phenyl-N-(1-(m-tolyl)ethyl)-1,6-dihydropyridazine-3-carboxamide] |  | > 10000 | 
6 | C[C@@H](NC(=O)c1ccc(=O)n(-c2ccccc2NS(C)(=O)=O)n1)c1cc(N)cc(C(F)(F)F)c1 [Example 33, N-[(1R)-1-[3-amino-5-(trifluoromethyl)phenyl]ethyl]-1-[2-(methanesulfonamido)phenyl]-6-oxo-pyridazine-3-carboxamide] |  | < 1000 | 
7 | C[C@@H](NC(=O)c1ccc(=O)n(-c2ccccc2O)n1)c1cc(N)cc(C(F)(F)F)c1 [Example 47, N-[(1R)-1-[3-amino-5-(trifluoromethyl)phenyl]ethyl]-1-(2-hydroxyphenyl)-6-oxo-pyridazine-3-carboxamide] |  | < 1000 | 
8 | C[C@@H](NC(=O)c1cc(C2CC2)c(=O)n(-c2ccccc2)n1)c1cc(N)cc(C(F)(F)F)c1 [Example 54, (R)-N-(1-(3-amino-5-(trifluoromethyl)phenyl)ethyl)-5-cyclopropyl-6-oxo-1-phenyl-1,6-dihydropyridazine-3-carboxamide] |  | < 1000 | 
9 | C[C@@H](NC(=O)c1ccc(=O)n(-c2ccccc2)n1)c1cccc(C#N)c1 [Example 4, (R)-N-(1-(3-cyanophenyl)ethyl)-6-oxo-1-phenyl-1,6-dihydropyridazine-3-carboxamide] |  | 1000 to 10000 | 
10 | C[C@@H](NC(=O)c1ccc(=O)n(C2CCN(S(C)(=O)=O)CC2)n1)c1cccc(Cl)c1 [Example 19, (R)-N-(1-(3-chlorophenyl)ethyl)-1-(1-(methylsulfonyl)piperidin-4-yl)-6-oxo-1,6-dihydropyridazine-3-carboxamide] |  | 1000 to 10000 | 
11 | C[C@@H](NC(=O)c1ccc(=O)n(-c2cccc(NS(C)(=O)=O)c2)n1)c1cccc(C(F)(F)CO)c1 [Example 39, (R)-N-(1-(3-(1,1-difluoro-2-hydroxyethyl)phenyl)ethyl)-1-(3-(methylsulfonamido)phenyl)-6-oxo-1,6-dihydropyridazine-3-carboxamide] |  | < 1000 | 
12 | C[C@@H](NC(=O)c1ccc(=O)n(-c2cccc(NS(C)(=O)=O)c2)n1)c1cc(N)cc(C(F)(F)F)c1 [Example 34, (R)-N-(1-(3-amino-5-(trifluoromethyl)phenyl)ethyl)-1-(3-(methylsulfonamido)phenyl)-6-oxo-1,6-dihydropyridazine-3-carboxamide] |  | 1000 to 10000 | 
13 | C[C@@H](NC(=O)c1ccc(=O)n(-c2ccccc2)n1)c1ccc(Cl)cc1 [Example 5, (R)-N-(1-(4-chlorophenyl)ethyl)-6-oxo-1-phenyl-1,6-dihydropyridazine-3-carboxamide] |  | > 10000 | 
14 | C[C@@H](NC(=O)c1ccc(=O)n(-c2ccccc2OC(F)(F)F)n1)c1cccc(C(F)(F)CO)c1F [Example 44, (R)-N-(1-(3-(1,1-difluoro-2-hydroxyethyl)-2-fluorophenyl)ethyl)-6-oxo-1-(2-(trifluoromethoxy)phenyl)-1,6-dihydropyridazine-3-carboxamide] |  | < 1000 | 

Second part, the molecule after the results:

Row | IC50 (KRAS^G12C::SOS1; read-out: KRAS ^G12C::SOS1 PPI assay (IC50 range, Grade), maximum concentration 3 µM, 8 concentrations, three replicates) [nM] | IC50 (SOS1) [nM] | IC50 (KRAS^G12C::SOS1) [nM] | Molecule
15 |  | < 1000 | < 1000 | C[C@@H](NC(=O)c1ccc(=O)n(-c2cccc(-c3ccnn3C(F)F)c2)n1)c1cccc(C(F)(F)CO)c1F [Example 150, N-[(1R)-1-[3-(1,1-difluoro-2-hydroxy-ethyl)-2-fluoro-phenyl]ethyl]-1-[3-[2-(difluoromethyl)pyrazol-3-yl]phenyl]-6-oxo-pyridazine-3-carboxamide]
16 |  | 1000 to 10000 | 1000 to 10000 | COCc1ccccc1-n1nc(C(=O)N[C@H](C)c2cc(N)cc(C(F)(F)F)c2)ccc1=O [Example 157, N-[(1R)-1-[3-amino-5-(trifluoromethyl)phenyl]ethyl]-1-[2-(methoxymethyl)phenyl]-6-oxo-pyridazine-3-carboxamide]
17 |  | > 10000 |  | C[C@@H](NC(=O)c1ccc(=O)n(C2C[C@@H]3CC[C@H]2C3)n1)c1cc(N)cc(C(F)(F)F)c1 (stereo partly drawn) [Example 119, N-[(1R)-1-[3-amino-5-(trifluoromethyl)phenyl]ethyl]-1-[(1S,4R)-bicyclo[2.2.1]heptan-2-yl]-6-oxo-1,6-dihydropyridazine-3-carboxamide]
18 |  | 1000 to 10000 |  | C[C@@H](NC(=O)c1cn(-c2ccccc2)c(=O)cn1)c1cc(N)cc(C(F)(F)F)c1 [Example 63, N-[(1R)-1-[3-amino-5-(trifluoromethyl)phenyl]ethyl]-5-oxo-4-phenyl-pyrazine-2-carboxamide]
19 |  | < 1000 |  | C[C@@H](NC(=O)c1ccc(=O)n(C2=CCN(S(C)(=O)=O)CC2)c1)c1cc(N)cc(C(F)(F)F)c1 [Example 74, N-[(1R)-1-[3-amino-5-(trifluoromethyl)phenyl]ethyl]-1'-methanesulfonyl-6-oxo-2',3'-dihydro-1'H,6H,6'H-[1,4'-bipyridine]-3-carboxamide]
20 |  | < 1000 |  | CC(=O)Nc1cccc(-n2cc(C(=O)N[C@H](C)c3cc(N)cc(C(F)(F)F)c3)ccc2=O)c1 [Example 129, N-[(1R)-1-[3-amino-5-(trifluoromethyl)phenyl]ethyl]-1-(3-acetamidophenyl)-6-oxo-1,6-dihydropyridine-3-carboxamide]
21 |  | 1000 to 10000 |  | C[C@@H](NC(=O)c1ccc(=O)n(C2CCCC2)n1)c1cc(N)cc(C(F)(F)F)c1 [Example 115, N-[(1R)-1-[3-amino-5-(trifluoromethyl)phenyl]ethyl]-1-cyclopentyl-6-oxo-1,6-dihydropyridazine-3-carboxamide]
22 |  | < 1000 |  | C[C@@H](NC(=O)c1nn(-c2ccccc2)c(=O)cc1C1CC1)c1cc(N)cc(C(F)(F)F)c1 [Example 55, (R)-N-(1-(3-amino-5-(trifluoromethyl)phenyl)ethyl)-4-cyclopropyl-6-oxo-1-phenyl-1,6-dihydropyridazine-3-carboxamide]
